In US20260216174A1, “TREATMENT OF ER+ BREAST CANCER COMPRISING HOMOLOGOUS RECOMBINATION DEFICIENCY USING PARG INHIBITOR” (IDEAYA BIOSCIENCES, INC., priority 2023, published 2026):

Tests used:
Assay in all cases: Cellular antiproliferative response, Assay 2 (nuclear dye intensity)
Format in all cases: cell-based
BT-474 = settings: Homo sapiens, 240 h; BT-474, HR mutant BRCA2, Assay 2, 10-day incubation; read-out: Log10 (IC50) (converted)
Protocol: (§1) Compound A was tested in a cell line panel. Cell lines were grown in RPMI 1640, 10% FBS, 2 mM L-alanyl-L-glutamine, 1 mM Na pyruvate, or a special medium. Cells were seeded into 384-well plates and incubated in a humidified atmosphere of 5% CO2 at 37° C. The following day, Compound A was added by serial dilution in half-log steps from the highest test concentration of 30 μM and assayed over ten concentrations. A time zero untreated cell plate was also generated. At seven days post-seeding, the growth media were replaced, and the plates were re-dosed with the test compound. After a 10-day incubation period, cells were fixed and stained with a fluorescent nuclear dye. Automated fluorescence microscopy was carried out using a Molecular Devices ImageXpress Micro XL high-content imager, and images were collected with a 4× objective. 16-bit TIFF images were acquired and analyzed with MetaXpress 5.1.0.41 software.
(§2) Cell proliferation effects of Compound A was measured using the fluorescent intensity of the incorporated nuclear dye as a percent of the control (POC), where POC=(Ix/I0)×100. Ix=nuclear intensity at concentration x and I0=average nuclear intensity of the untreated vehicle wells. Cellular IC50 was calculated using nonlinear regression to a sigmoidal single-site dose response model. Curve fitting, calculations, and report generation was performed using a custom data reduction engine and MathIQ based software (AIM).

HCC202 = settings: 240 h; HCC202, HR mutant BRCA2, Assay 2, 10-day incubation; read-out: Log10 (IC50) (converted)
Protocol: as §1, §2

HCC1954 = settings: Homo sapiens, 240 h; HCC1954, HR mutant BRCA1, Assay 2, 10-day incubation; read-out: Log10 (IC50) (converted)
Protocol: as §1, §2

HCC1428 = settings: Homo sapiens, 240 h; HCC1428, HR mutant BRCA2, Assay 2, 10-day incubation; read-out: Log10 (IC50) (converted)
Protocol: as §1, §2

CAL-51 = settings: Homo sapiens, 240 h; CAL-51, HR mutant BRCA2, CHEK1, Assay 2, 10-day incubation; read-out: Log10 (IC50) (converted)
Protocol: as §1, §2

HCC1395 = settings: Homo sapiens, 240 h; HCC1395, HR mutant BRCA1, BRCA2, Assay 2, 10-day incubation; read-out: Log10 (IC50) (converted)
Protocol: as §1, §2

CAL-85-1 = settings: Homo sapiens, 240 h; CAL-85-1, HR mutant BRCA2, Assay 2, 10-day incubation; read-out: Log10 (IC50) (converted)
Protocol: as §1, §2

AU565 = settings: Homo sapiens, 240 h; AU565, HR mutant CHEK2, Assay 2, 10-day incubation; read-out: Log10 (IC50) (converted)
Protocol: as §1, §2

HCC1937 = settings: Homo sapiens, 240 h; HCC1937, HR mutant BRCA1, Assay 2, 10-day incubation; read-out: Log10 (IC50) (converted)
Protocol: as §1, §2

MDA-MB-436 = settings: Homo sapiens, 240 h; MDA-MB-436, HR mutant BRCA1, Assay 2, 10-day incubation; read-out: Log10 (IC50) (converted)
Protocol: as §1, §2

HCC1569 = settings: Homo sapiens, 240 h; HCC1569, HR mutant BRCA2, Assay 2, 10-day incubation; read-out: Log10 (IC50) (converted)
Protocol: as §1, §2

HCC1599 = settings: Homo sapiens, 240 h; HCC1599, HR mutant BRCA2, Assay 2, 10-day incubation; read-out: Log10 (IC50) (converted)
Protocol: as §1, §2

EFM-19 = settings: Homo sapiens, 240 h; EFM-19, HR mutant ATM, Assay 2, 10-day incubation; read-out: Log10 (IC50) (converted)
Protocol: as §1, §2

SMILES: C[C@H]1CN(c2cc(S(=O)(=O)NC3(C)CC3)cc3c2cnn3-c2nnc(C(F)F)s2)C[C@H](C)N1 [Compound A, 1-(5-(difluoromethyl)-1,3,4-thiadiazol-2-yl)-4-((3S,5S)-3,5-dimethylpiperazin-1-yl)-N-(1-methylcyclopropyl)-1H-indazole-6-sulfonamide]
- IC50 (BT-474): 847 nM
- IC50 (HCC202): 640 nM
- IC50 (HCC1954): 370 nM
- IC50 (HCC1428): 10 nM
- IC50 (CAL-51): 3530 nM
- IC50 (HCC1395): 30 nM
- IC50 (CAL-85-1): 100 nM
- IC50 (AU565): 52.3 nM
- IC50 (HCC1937): 220 nM
- IC50 (MDA-MB-436): 52.4 nM
- IC50 (HCC1569): 80 nM
- IC50 (HCC1599): 1310 nM
- IC50 (EFM-19): 689 nM
